Literature values as cited in US20020051978A1, “Methods and compositions for the identification, assessment, prevention and therapy of human cancers” (priority 2000, published 2002).
Read-outs that look alike come from different tables or passages of the source.

Test system: 60 cancer cell lines (NCI 60 cancer cell line series)
Settings: cited from earlier work

For `CS(=O)(=O)OCCCCOS(C)(=O)=O` [Busulfan], which “-Log (GI50)” value (Breast BT-549 (CL5013)) is on record?
Its value is 3.6.

And the “-Log (GI50)” value (Breast HS-578T CL5006)?
Its value is 3.6.

What about the “-Log (GI50)” value (Breast MCF7(I) (CL5001)) of the same molecule?
Its value is 3.7.

What about the “-Log (GI50)” value (Breast MCF7/ADRr (CL5002)) of the same molecule?
Its value is 3.6.

What about the “-Log (GI50)” value (Breast MDA-MB-231 CL5005) of the same molecule?
Its value is 3.6.

And the “-Log (GI50)” value (Breast MDA-MB-435 (CL5011))?
The value was 3.6.

And the “-Log (GI50)” value (Breast MDA-N CL5012)?
The value was 3.7.

And the “-Log (GI50)” value (Breast T-47D (CL5014))?
The value was 3.6.

What about the “-Log (GI50)” value (CNS SF-268 CL12014) of the same molecule?
The value was 3.8.

What about the “-Log (GI50)” value (CNS SF-295 CL12015) of the same molecule?
Its value is 3.7.

What about the “-Log (GI50)” value (CNS SF-539 CL12016) of the same molecule?
The value was 3.6.

What about the “-Log (GI50)” value (CNS SNB-19 (CL12002)) of the same molecule?
The value was 3.6.

What about the “-Log (GI50)” value (CNS SNB-75(I) CL12005) of the same molecule?
The value was 3.8.

And the “-Log (GI50)” value (CNS U251(I) CL12009)?
Its value is 3.6.

What about the “-Log (GI50)” value (Colon COLO-250 CL4010) of the same molecule?
The value was 3.6.

And the “-Log (GI50)” value (Colon HCC-2998 (CL4002))?
The value was 3.7.

And the “-Log (GI50)” value (Colon HCT-15 CL4015)?
Its value is 3.6.

And the “-Log (GI50)” value (Colon HCT-116 (CL4003))?
Its value is 3.6.

And the “-Log (GI50)” value (Colon HT29(I) CL4001)?
The value was 3.6.

What about the “-Log (GI50)” value (Colon KM12 (CL4017)) of the same molecule?
The value was 3.6.

And the “-Log (GI50)” value (Colon SW-620 (CL4009))?
The value was 3.7.

What about the “-Log (GI50)” value (Leukemia CCRF-CEM(I) (CL7003)) of the same molecule?
The value was 3.8.

And the “-Log (GI50)” value (Leukemia HL-60(I) (CL7008))?
The value was 3.8.

And the “-Log (GI50)” value (Leukemia K562(I) CL7005)?
The value was 3.6.

What about the “-Log (GI50)” value (Leukemia MOLT-4 (CL7006)) of the same molecule?
Its value is 3.9.

What about the “-Log (GI50)” value (Leukemia RPMI-8226(I) (CL7010)) of the same molecule?
Its value is 3.6.

And the “-Log (GI50)” value (Leukemia SR CL7019)?
The value was 4.1.

What about the “-Log (GI50)” value (Melanoma LOX IMVI CL10001) of the same molecule?
The value was 3.7.

What about the “-Log (GI50)” value (Melanoma M14 (CL10014)) of the same molecule?
The value was 3.6.

What about the “-Log (GI50)” value (Melanoma MALME-3M CL10002) of the same molecule?
The value was 3.6.

And the “-Log (GI50)” value (Melanoma SK-MEL-2 (CL10005))?
Its value is 3.6.

What about the “-Log (GI50)” value (Melanoma SK-MEL-5 (CL10007)) of the same molecule?
Its value is 3.6.

What about the “-Log (GI50)” value (Melanoma SK-MEL-28 (CL10008)) of the same molecule?
Its value is 3.7.

And the “-Log (GI50)” value (Melanoma UACC-62 (CL10020))?
The value was 3.7.

And the “-Log (GI50)” value (Melanoma UACC-257 (CL10021))?
The value was 3.7.

What about the “-Log (GI50)” value (NCSLC NCI-H522 CL1003) of the same molecule?
The value was 3.6.

And the “-Log (GI50)” value (NSCLC A549/ATCC (CL1004))?
Its value is 3.7.

What about the “-Log (GI50)” value (NSCLC EKVX (CL1008)) of the same molecule?
Its value is 3.7.

What about the “-Log (GI50)” value (NSCLC HOP-62 (CL1026)) of the same molecule?
The value was 3.7.

And the “-Log (GI50)” value (NSCLC HOP-92 (CL1029))?
Its value is 3.8.

And the “-Log (GI50)” value (NSCLC NCI-H23(I) CL1001)?
The value was 3.6.

What about the “-Log (GI50)” value (NSCLC NCI-H226 CL1013) of the same molecule?
The value was 3.7.

What about the “-Log (GI50)” value (NSCLC NCI-H332M CL1017) of the same molecule?
Its value is 3.6.

What about the “-Log (GI50)” value (NSCLC NCI-H460 CL1021) of the same molecule?
The value was 4.0.

And the “-Log (GI50)” value (Ovarian IGROV1 CL6010)?
The value was 3.6.

What about the “-Log (GI50)” value (Ovarian OVCAR-3 CL6001) of the same molecule?
Its value is 3.7.

And the “-Log (GI50)” value (Ovarian OVCAR-4 CL6002)?
Its value is 3.7.

What about the “-Log (GI50)” value (Ovarian OVCAR-5 CL6003) of the same molecule?
Its value is 3.6.

And the “-Log (GI50)” value (Ovarian OVCAR-8 CL6005)?
The value was 3.6.

What about the “-Log (GI50)” value (Ovarian SK-OV-3 CL6011) of the same molecule?
Its value is 3.6.

What about the “-Log (GI50)” value (Prostate DU-145 CL11003) of the same molecule?
The value was 3.7.

What about the “-Log (GI50)” value (Prostate PC-3(I) CL11001) of the same molecule?
Its value is 3.6.

And the “-Log (GI50)” value (Renal 786-O CL9018)?
Its value is 3.6.

What about the “-Log (GI50)” value (Renal A498 CL9013) of the same molecule?
Its value is 3.6.

And the “-Log (GI50)” value (Renal ACHN CL9023)?
The value was 3.8.

And the “-Log (GI50)” value (Renal CAKI-1 CL9015)?
The value was 3.9.

What about the “-Log (GI50)” value (Renal RXF-393 CL9016) of the same molecule?
The value was 3.9.

What about the “-Log (GI50)” value (Renal SN12C CL9008) of the same molecule?
Its value is 3.6.

And the “-Log (GI50)” value (Renal TK10 CL9024)?
The value was 3.6.

What about the “-Log (GI50)” value (Renal UO-31 CL9004) of the same molecule?
Its value is 3.6.

Which results are given for `O=C(O)CCCc1ccc(N(CCCl)CCCl)cc1` [Chlorambucil]?
-Log (GI50) (Breast BT-549 (CL5013)): 4.0; -Log (GI50) (Breast HS-578T CL5006): 3.7; -Log (GI50) (Breast MCF7(I) (CL5001)): 4.5; -Log (GI50) (Breast MCF7/ADRr (CL5002)): 4.3; -Log (GI50) (Breast MDA-MB-231 CL5005): 3.8; -Log (GI50) (Breast MDA-MB-435 (CL5011)): 3.9; -Log (GI50) (Breast MDA-N CL5012): 3.9; -Log (GI50) (Breast T-47D (CL5014)): 4.3; -Log (GI50) (CNS SF-268 CL12014): 4.5; -Log (GI50) (CNS SF-295 CL12015): 4.4; -Log (GI50) (CNS SF-539 CL12016): 4.6; -Log (GI50) (CNS SNB-19 (CL12002)): 4.0; -Log (GI50) (CNS SNB-75(I) CL12005): 4.3; -Log (GI50) (CNS U251(I) CL12009): 4.4; -Log (GI50) (Colon COLO-250 CL4010): 3.9; -Log (GI50) (Colon HCC-2998 (CL4002)): 4.0; -Log (GI50) (Colon HCT-15 CL4015): 4.0; -Log (GI50) (Colon HCT-116 (CL4003)): 4.0; -Log (GI50) (Colon HT29(I) CL4001): 3.9; -Log (GI50) (Colon KM12 (CL4017)): 3.8; -Log (GI50) (Colon SW-620 (CL4009)): 4.1; -Log (GI50) (Leukemia CCRF-CEM(I) (CL7003)): 5.2; -Log (GI50) (Leukemia HL-60(I) (CL7008)): 5.1; -Log (GI50) (Leukemia K562(I) CL7005): 3.9; -Log (GI50) (Leukemia MOLT-4 (CL7006)): 5.3; -Log (GI50) (Leukemia RPMI-8226(I) (CL7010)): 4.1; -Log (GI50) (Leukemia SR CL7019): 5.2; -Log (GI50) (Melanoma LOX IMVI CL10001): 4.4; -Log (GI50) (Melanoma M14 (CL10014)): 4.2; -Log (GI50) (Melanoma MALME-3M CL10002): 4.2; -Log (GI50) (Melanoma SK-MEL-2 (CL10005)): 3.8; -Log (GI50) (Melanoma SK-MEL-5 (CL10007)): 4.1; -Log (GI50) (Melanoma SK-MEL-28 (CL10008)): 4.0; -Log (GI50) (Melanoma UACC-62 (CL10020)): 4.7; -Log (GI50) (Melanoma UACC-257 (CL10021)): 4.1; -Log (GI50) (NCSLC NCI-H522 CL1003): 4.6; -Log (GI50) (NSCLC A549/ATCC (CL1004)): 4.2; -Log (GI50) (NSCLC EKVX (CL1008)): 3.8; -Log (GI50) (NSCLC HOP-62 (CL1026)): 4.4; -Log (GI50) (NSCLC HOP-92 (CL1029)): 4.2; -Log (GI50) (NSCLC NCI-H23(I) CL1001): 4.6; -Log (GI50) (NSCLC NCI-H226 CL1013): 4.1; -Log (GI50) (NSCLC NCI-H332M CL1017): 3.7; -Log (GI50) (NSCLC NCI-H460 CL1021): 4.9; -Log (GI50) (Ovarian IGROV1 CL6010): 3.9; -Log (GI50) (Ovarian OVCAR-3 CL6001): 4.0; -Log (GI50) (Ovarian OVCAR-4 CL6002): 3.9; -Log (GI50) (Ovarian OVCAR-5 CL6003): 4.0; -Log (GI50) (Ovarian OVCAR-8 CL6005): 4.1; -Log (GI50) (Ovarian SK-OV-3 CL6011): 4.0; -Log (GI50) (Prostate DU-145 CL11003): 4.2; -Log (GI50) (Prostate PC-3(I) CL11001): 4.0; -Log (GI50) (Renal 786-O CL9018): 4.5; -Log (GI50) (Renal A498 CL9013): 3.9; -Log (GI50) (Renal ACHN CL9023): 4.8; -Log (GI50) (Renal CAKI-1 CL9015): 4.8; -Log (GI50) (Renal RXF-393 CL9016): 4.6; -Log (GI50) (Renal SN12C CL9008): 4.5; -Log (GI50) (Renal TK10 CL9024): 3.8; -Log (GI50) (Renal UO-31 CL9004): 4.2
